This note sets out measurements from US4263427A, “Monensin urethane derivatives” (priority 1979, dated 1981).

Experiment [1] concerns Bacillus megaterium 8CU. In words: Minimum Inhibitory Concentration, agarwell diffusion assay (Table 6). The format is cell-based. To be noted: Priestia megaterium, 8CU, read-out: Minimum Inhibitory Concentration, Bacillus megaterium 8CU. From the text: (§1) (a) Lowest twofold dilution giving zone of inhibition in the agarwell
(§2) (b) NRRL collection number, all the rest ate ATCC numbers.

Experiment [2] concerns Bacillus sp. E 27859. Described as above. The format is cell-based. To be noted: Bacillus, SP.E27859, Bacillus sp. E 27859, read-out: Minimum Inhibitory Concentration.
Description: as §1, §2

Experiment [3] concerns Bacillus sp. TA 27860. Described as above. It is filed as cell-based. To be noted: Bacillus, SP.TA27860, Bacillus sp. TA 27860, read-out: Minimum Inhibitory Concentration.
Description: as §1, §2

The subject of experiment [4] is Bacillus subtilis 583. The description is as above. The format is cell-based. To be noted: Bacillus subtilis, 583, Bacillus subtilis 583 (NRRL), read-out: Minimum Inhibitory Concentration.
Description: as §1, §2

Experiment [5] concerns MycoBacterium phiel 355. The description is as above. To be noted: Mycobacterium, 355, read-out: Minimum Inhibitory Concentration, MycoBacterium phiel 355. The format is cell-based.
Description: as §1, §2

Experiment [6] concerns Paceilomyces variotl 25820. Described as above. The format is cell-based. To be noted: read-out: Minimum Inhibitory Concentration, Paceilomyces variotl 25820.
Description: as §1, §2

Experiment [7] relates to Sarcina lutca 9341. Described as above. The format is cell-based. To be noted: Sarcina, 9341, read-out: Minimum Inhibitory Concentration, Sarcina lutca 9341.
Description: as §1, §2

For experiment [8], the system named is Staph. aureus 6538. The experiment is described as above. The format is cell-based. To be noted: Staphylococcus aureus, 6538, read-out: Minimum Inhibitory Concentration, Staph. aureus 6538.
Description: as §1, §2

The test system of experiment [9] is Streptococcus cellulosac 3313. Described as above. The format is cell-based. To be noted: Streptococcus, 3313, read-out: Minimum Inhibitory Concentration, Streptococcus cellulosac 3313.
Description: as §1, §2

For experiment [10], the system named is Streptococcus faecium 8043. The experiment is described as above. To be noted: Enterococcus faecium, 8043, Streptococcus faecium 8043, read-out: Minimum Inhibitory Concentration. It is filed as cell-based.
Description: as §1, §2

Experiment [11] has as its system Eimeria tenella. Kind of experiment: Anti-coccidial effect of monensin urethanes added to the feed of infected chickens (Table 7). The format is in vivo. To be noted: 75 ppm in feed; infected untreated control 3.0; less than 2.5 significant. As to the method: This test utilizes ten chickens per drug group. Ten chickens are employed as a weight control and ten chickens as an infected control. The drug is given 48 hours in advance of the infection. One gm. of the test drug is mixed in a mechanical mixer with a sufficient amount of chicken feed to result in the desired dosage. The infection consists of approximately 200,000 oocysts given orally by pipette. The tests lasts for eleven days and then the surviving birds are autopsied and examined for gross lesions in the ceca. The test birds are rated according to the number of survivors and the number of cecal lesions. The results are expressed as average degree of infection (A.D.I.). An average degree of infection of less than 2.5 is considered to be significant.

Experiment [12] relates to Treponema hyodysenteriae. Kind of experiment: Activity against Treponema hyodysenteriae (MIC, blood agar plates). The format is cell-based. To be noted: Brachyspira hyodysenteriae, 48 h, 42° C., anaerobic. From the text: Testing for activity against Treponema hyodysenteriae, a cause of swine dysentery consisted of inoculation of blood agar plates containing a series of two or fourfold dilutions of the monensin urethane derivatives with tenfold dilutions of the T. hyodysenteriae strain.

The test system of experiment [13] is Plasmodium berghei. In words: Oral antimalarial activity against Plasmodium berghei in mice. It is filed as in vivo. To be noted: p.o. From the text:
Compounds of formula I wherein R4 is aryl, haloaryl or nitroaryl and their pharmaceutically acceptable salts are orally active as antimalarial agents.

The nature of experiment [14]: Oral antihypertensive activity: blood pressure and heart rate (Table 9). It is filed as in vivo. To be noted: oral dose 1 mg/kg. The text has this: Compounds of formula I, and their pharmaceutically acceptable salts are orally active as antihypertensive agents.
The subject of experiment [15] is rumen fluid. To be noted: 50 ppm; control 100.

Each structure is given as a SMILES string. Where a name gives a salt, the structure may show the parent alone.

`CCC1(C2OC(C3OC(O)(COC(=O)Nc4ccc(Br)cc4)C(C)CC3C)CC2C)CCC(C2(C)CCC3(CC(O)C(C)C(C(C)C(OC)C(C)C(=O)O)O3)O2)O1` (stereo not shown) [Monensin A, 4-bromophenylurethane, 4-bromophenylaminocarbonyloxy-(0-11)-monensin, sodium salt]: the MIC in [1] is 0.1 µg/mL; in experiment [2], 0.05 µg/mL; in [3], 0.2 µg/mL; in [4] it was 0.4 µg/mL; in experiment [5], 1.6 µg/mL; in [6], 1.6 µg/mL. Also, the MIC in [7] turned out to be 0.2 µg/mL; in [8], 0.8 µg/mL; in experiment [9], 0.8 µg/mL; in experiment [10], 0.1 µg/mL; in experiment [12], 0.4 µg/mL. The “Average Degree of Infected (A.D.I.)” value in experiment [11] was 0.7. Moreover, the ED50 in experiment [13] was 15 to 20 mg/kg. The “Day of Maximum Change, Blood Pressure” value in [14] was found to be 2 days. Also, the “Maximum Change (%), Blood Pressure” value in [14] is 21%. Further, the “Mean Blood Pressure at time of maximum effect” value in experiment [14] (at time of maximum effect) stood at 178 mm Hg. The “Mean Blood Pressure before treatment” value in experiment [14] (before treatment) amounted to 225 mm Hg. The “Rate of Gas Production, Percent Production of Control Fermentations” value in experiment [15] turned out to be 103.0%. Further, the “Total VFA, Percent Production of Control Fermentations” value in experiment [15] came out at 89.9%.
